# How the values were obtained:
# [1] = system: CD3-stimulated T cells; experiment: CD3 stimulation of T cells: metabolite titration curves, 3[H]-thymidin incorporation; format: cell-based, human; conditions: anti-CD3 antibody, 3 days
# Source text: • (a) Allogeneic T-cell response. DCs were infected with recombinant IDO-adeno-GFP (DC-IDO-GFP), IDO-adeno (DC-IDO) or with control adenoviruses (DC-adeno) at a MOI (multiplicity of infection) up to 500 for 2 days. Lymphocytes (PBMCs) were separated from peripheral blood of healthy donors by density gradient centrifugation and typed for HLA antigens. Only HLA-DR-different responder lymphocytes were used for DC-induced stimulation. Native DCs only, lymphocytes only, native DCs + allogeneic lymphocytes, DC-IDO-GFP + allogeneic lymphoytes, DC-IDO + allogeneic lymphoytes, DC-adeno + allogeneic lymphocytes (each time 10^5 DC + 10^5 lymphocytes in 0.2ml medium) were cultured in RPMI 1640 medium (Gibco BRL Life Technologies GmbH, Eggenstein, Germany) with 10% fetal calf serum (FCS) (final tryptophan concentration 5.25 mg/l = 25.69 uM) and Penicillin G/Streptomycin. […] In order to verify whether IDO expression or adenovirus infection harm the DCs, 10^5 cells were infected with IDO-adeno-GFP, IDO-adenovirus, or adenovirus only at a stepwise decreasing MOI (500, 250, 125, ........ 3.9) and cell viability was measured in FACS following double staining with 7-AAD and anti-CD83 antibody-PE. The percentage of dead cells never exceeded 30% for any MOI following IDO-adeno-GFP- or IDO-adeno-infection and 40% following adenovirus(control)-infection. Moreover, these values were not higher than those of native DCs cultured for the same period of time. The experiment was repeated using ethidium bromide or trypan blue staining with virtually the same result. […] Peripheral blood lymphocytes were cultured (10^5 cells/well) in RPMI 1640 (10% FCS) with anti CD3 monoclonal antibody (Ortho Diagnostic Systems Inc., Raritan, NJ) (final dilution 1:200). […] Kynurenine, 3-hydroxykynurenine, anthranilic acid, 3-hydroxyanthranilic acid, and quinolinic acid (Sigma-Aldrich Chemie GmbH, Taufkirchen, Germany)(for all substances purity>98%) were dissolved in RPMI 1640 and added to cell cultures at various concentrations. In an other experiment, to determine whether the metabolites have an additive effect, equal concentrations of the compounds were mixed and added to the cultures. […] Positive controls consisted of CD3-stimulated cells without metabolites and negative controls of unstimulated cells. • (d) Restimulation of suppressed T cells. Lymphocytes (10^5 cells/well) were cultured in RPMI 1640 (10% FCS) with anti-CD3 monoclonal antibody (final dilution 1:200) and kynurenine (dilution series). […] Controls consisted of cells prestimulated with anti-CD3 but not pretreated with kynurenine. In an other restimulation experiment lymphocytes were stimulated with allogeneic DCs as described, in the presence (47-1500µM) or absence of kynurenine. Control cultures contained DCs or lymphocytes only. After 5 days the cells were extensively washed, and restimulated with an identical number of DCs derived from the same donor or from third party donors. […] In order to define the concentration of tryptophan which reduces T- lymphocyte proliferation in our test system, 10^5 lymphocytes were incubated in tryptophan-free RPMI 1640 medium (Gibco BRL Life Technologies) with or without 10% FCS, stimulated with anti-CD3 monoclonal antibody, and various amounts (0-38µM) of tryptophan were added. Unimpaired proliferation was observed down to 0.30µM (medium with FCS) and 1 .20µM (without FCS). Complete inhibition was not obtained at any concentration (positive control 100% proliferation; maximal suppression in medium with FCS: approx. 66% and without FCS: approx. 33%). All cell cultures were done in triplicate.
# All tests were carried out in triplicate and results are given as mean +standard deviation. […] Thereafter, the concentration of substance giving 50% proliferation was calculated by regression.
# [2] = system: T cells; experiment: Detection of cell death: 7-AAD staining of anti-CD3 stimulated lymphocytes, FACScan; format: cell-based, human; conditions: anti-CD3, 3 days; 1501 µM kynurenine, 349µM 3-hydroxykynurenine, 510µM 3-hydroxyanthranilic acid, mixture 64 µM of each compound
# Description: Lymphocytes were stimulated in culture with anti-CD3 monoclonal antibody (s. above) in the presence or absence (control) of kynurenine (1501µM), 3-hydroxyanthranilic acid (510µM), 3-hydroxykynurenine (348µM), or metabolite mixture (64µM kynurenine + 64µM 3-hydroxykynurenine + 64µM anthranilic acid + 64µM 3-hydroxyanthranilic acid + […] quinolinic acid). After 3 days the cells were washed and resuspended in PBS (10^6/ml). Thereafter, the cells (100µ1 suspension) were labeled with anti-CD3-FITC antibody (3 µl), stained with 7-AAD (5µl) for 15 min, and the percentage of 7-AAD-positive (dead) T cells was determined in a FACScan. In an other experiment T cells, B cells, NK-cells, or DCs were separated from PBMCs by magnetic beads or generated as described, and cultured (5x10^5 cells/ml) with a mixture of kynurenine metabolites (kynurenine + 3-hydroxykynurenine + anthranilic acid + 3-hydroxyanthranilic acid + quinolinic acid)(8, 16, or 32µM respectively for each compound). In one setting T cells were activated with anti-CD3 antibody. Cell death was measured daily for 5 days by 7-AAD staining and expressed in percentage of dead cells.
smiles,measurement,setting,value
Nc1ccccc1C(=O)CC(N)C(=O)O (stereo not drawn) [kynurenine],IC50,"[1]; Homo sapiens, T-cell, 72 h, single substance, read-out: I50 of proliferation of CD3-stimulated T cells",553 µM
same,suppression of T cell response (in words),[1],suppressed proliferation
same,dead (7-AAD-positive) T cells (in words),[2],virtually all cells died
